Reference: US8158628B2, “Sulfonylated 1,2,3,4-tetrahydropyrrolo[1,2-a]pyrazine compounds and their use as pharmaceuticals” (Gruenenthal GmbH, priority 2009, dated 2012)

Key:
human B1R = biological target: T1, human B1R (Homo sapiens, UniProt P46663); assay: FLIPR Ca2+ functional assay, B1R antagonism, human B1R in CHO K1 cells; type: cell-based; details: test substance 10 μM; hB1R CHO K1 cells; agonist Lys-Des-Arg9 bradykinin at EC80; % of maximum achievable inhibition
T1 construct: expressed in transfected cells; host or cells: CHO K1 cells (Chinese hamster ovary), stably transfected
T1 sequence (P46663 1-353): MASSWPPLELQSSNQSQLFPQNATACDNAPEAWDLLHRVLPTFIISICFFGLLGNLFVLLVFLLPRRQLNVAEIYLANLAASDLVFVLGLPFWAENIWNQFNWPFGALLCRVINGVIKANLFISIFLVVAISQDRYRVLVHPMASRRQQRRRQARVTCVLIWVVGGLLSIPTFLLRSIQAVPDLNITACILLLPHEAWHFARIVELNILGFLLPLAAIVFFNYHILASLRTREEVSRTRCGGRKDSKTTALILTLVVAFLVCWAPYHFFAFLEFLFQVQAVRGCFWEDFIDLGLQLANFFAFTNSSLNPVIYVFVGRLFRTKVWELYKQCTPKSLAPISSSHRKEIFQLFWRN
Description: The agonistic or antagonistic action of substances on the bradykinin 1 receptor (B1R) of the human and rat species can be quantified with ectopically expressing cell lines (CHO K1 cells) and with the aid of a Ca^2+-sensitive dye (Fluo-4) using a fluorescent imaging plate reader (FLIPR). The value in % activation is based on the Ca^2+ signal after addition of Lys-Des-Arg^9 bradykinin (0.5 nM) or Des-Arg^9 bradykinin (100 nM). Antagonists lead to a suppression of the Ca^2+ influx following administration of the agonist. The % inhibition in comparison with the maximum achievable inhibition is indicated.
1. Functional Investigation on the Bradykinin 1 Receptor (B1R) The agonistic or antagonistic action of substances can be determined on the bradykinin 1 receptor (B1R) of the human and rat species with the following assay. According to this assay, the Ca^2+ inflow through the channel is quantified with the aid of a Ca^2+-sensitive dye (Fluo-4 type, Molecular Probes Europe BV, Leiden, Netherlands) in a fluorescent imaging plate reader (FLIPR, Molecular Devices, Sunnyvale, USA). 2. Method: Chinese hamster ovary cells (CHO K1 cells) which are stably transfected with the human B1R gene (hB1R cells) or the B1R gene of the rat (rB1R cells) are used. For functional investigations these cells are plated-out onto black 96-well plates with a clear base (BD Biosciences, Heidelberg, Germany or Greiner, Frickenhausen, Germany) in a density of 20,000-35,000 cells/well. Overnight the cells are incubated at 37° C. and 5% CO2 in culture medium (hB1R cells: Ham's Nutrient Mixture F12, Gibco Invitrogen GmbH, Karlsruhe, Germany or DMEM, Sigma-Aldrich, Taufkirchen, Germany; rB1R cells: D-MEM/F12, Gibco Invitrogen, Karlsruhe, Germany) with 10 vol. % FBS (foetal bovine serum, Gibco Invitrogen GmbH, Karlsruhe, Germany or PAN Biotech GmbH, Aidenbach, Germany).
On the following day the cells are loaded with 2.13 μM Fluo-4 (Molecular Probes Europe BV, Leiden, Netherlands) in HBSS buffer (Hank's buffered saline solution, Gibco Invitrogen GmbH, Karlsruhe, Germany) with 2.5 mM probenecid (Sigma-Aldrich, Taufkirchen, Germany) and 10 mM HEPES (Sigma-Aldrich, Taufkirchen, Germany) for 60 min at 37° C. The plates are subsequently washed twice with HBSS buffer, and HBSS buffer which additionally contains 0.1% BSA (bovine serum albumin; Sigma-Aldrich, Taufkirchen, Germany), 5.6 mM glucose and 0.05% gelatine (Merck KGaA, Darmstadt, Germany) is added. After a further incubation of 20 minutes at RT, the plates are inserted into the FLIPR for Ca^2+ measurement. Alternatively they are washed with buffer A (15 mM HEPES, 80 mM NaCl, 5 mM KCl, 1.2 mM CaCl2, 0.7 mM MgSO4, 2 g/l glucose, 2.5 mM probenecid) and loaded with buffer A with added 2.5 μM Fluo-4 and 0.025% Pluronic F127 (Sigma-Aldrich, Taufkirchen, Germany). The cells are then washed twice with buffer A and incubated for 30 minutes with buffer A, which additionally contains 0.05% BSA and 0.05% gelatine, at RT and then used for Ca^2+ measurement in the FLIPR. The Ca^2+-dependent fluorescence is measured here before and after addition of substances (λex=488 nm, λem=540 nm). The quantification is performed by measuring the highest fluorescence intensity (FC, fluorescence counts) over time.
The FLIPR protocol comprises two additions of substance. Test substances (10 μM) are first pipetted onto the cells and the Ca^2+ inflow is compared with the control (hB1R: Lys-Des-Arg^9 bradykinin >=50 nM; rB1R: Des-Arg^9 bradykinin 10 μM). The value in % activation based on the Ca^2+ signal after addition of Lys-Des-Arg^9 bradykinin (>=50 nM) or Des-Arg^9 bradykinin (10 μM) is obtained therefrom. After incubation for 10-20 minutes, Lys-Des-Arg^9 bradykinin (hB1R) or Des-Arg^9 bradykinin (rB1R) is applied in the EC80 concentration and the inflow of Ca^2+ is likewise determined.
Antagonists lead to a suppression of the Ca^2+ inflow. The % inhibition in comparison with the maximum achievable inhibition is calculated. […]

B1R of the rat = biological target: T2, B1R of the rat (Rattus norvegicus, UniProt P97583); assay: FLIPR Ca2+ functional assay, B1R antagonism, rat B1R in CHO K1 cells; type: cell-based; details: test substance 10 μM; rB1R CHO K1 cells; agonist Des-Arg9 bradykinin at EC80; % of maximum achievable inhibition
T2 construct: expressed in transfected cells; host or cells: CHO K1 cells (Chinese hamster ovary), stably transfected
T2 sequence (P97583 1-337): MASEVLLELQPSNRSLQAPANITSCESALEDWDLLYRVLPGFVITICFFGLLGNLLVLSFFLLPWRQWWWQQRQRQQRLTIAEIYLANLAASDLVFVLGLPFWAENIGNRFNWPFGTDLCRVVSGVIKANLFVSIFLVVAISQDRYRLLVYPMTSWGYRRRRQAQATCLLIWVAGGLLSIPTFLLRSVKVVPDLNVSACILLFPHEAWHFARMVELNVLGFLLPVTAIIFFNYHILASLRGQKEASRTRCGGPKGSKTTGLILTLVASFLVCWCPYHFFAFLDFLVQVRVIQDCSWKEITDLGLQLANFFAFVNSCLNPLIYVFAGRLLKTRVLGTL
Procedure, shortened: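 Stably transfected CHO K1 cells loaded with Fluo-4; Ca2+ fluorescence read on FLIPR (ex 488/em 540 nm). Compound preincubated 10-20 min, then agonist at EC80: Lys-Des-Arg9 bradykinin (human) or Des-Arg9 bradykinin (rat). % inhibition vs maximal inhibition; IC50 from concentration series, n=2-3, N>=2.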

SMILES	inhibition at 10 µM (human B1R) [%]	inhibition at 10 µM (B1R of the rat) [%]
COc1ccc2cc(S(=O)(=O)N3CCn4cccc4C3CC(=O)NC3CCc4cc(CN5CCCc6ccccc65)ccc4C3)ccc2c1 (centres unmarked) [Example 105, 2-[2-[(6-Methoxy-naphthalen-2-yl)sulfonyl]-1,2,3,4-tetrahydro-pyrrolo[1,2-a]pyrazin-1-yl]-N-[6-(1,2,3,4-tetrahydro-quinolin-1-yl-methyl)-1,2,3,4-tetrahydro-naphthalen-2-yl]-acetamide]	99.8	103
CNCc1ccc2c(c1)CCC(NC(=O)CC1c3cccn3CCN1S(=O)(=O)c1ccc(C)cc1)C2 (centres unmarked) [Example 140, N-[6-(Methylamino-methyl)-1,2,3,4-tetrahydro-naphthalen-2-yl]-2-[2-(p-tolylsulfonyl)-1,2,3,4-tetrahydro-pyrrolo[1,2-a]pyrazin-1-yl]-acetamide]	96.1	102
Cc1ccc(S(=O)(=O)N2CCn3cccc3C2CC(=O)NC2CCCc3cc(CN4CCCc5ccccc54)ccc32)cc1Cl (centres unmarked) [Example 119, 2-[2-[(3-Chloro-4-methyl-phenyl)sulfonyl]-1,2,3,4-tetrahydro-pyrrolo[1,2-a]pyrazin-1-yl]-N-[6-(1,2,3,4-tetrahydro-quinolin-1-yl-methyl)-1,2,3,4-tetrahydro-naphthalen-1-yl]-acetamide]	23.4	62.2
Cc1ccc(S(=O)(=O)N2CCn3cccc3C2CC(=O)NC2CCCc3cc(CN4CCCC4)ccc32)cc1 (centres unmarked) [Example 85, 2-[2-(p-Tolylsulfonyl)-1,2,3,4-tetrahydro-pyrrolo[1,2-a]pyrazin-1-yl]-N-[6-(pyrrolidin-1-yl-methyl)-1,2,3,4-tetrahydro-naphthalen-1-yl]-acetamide]	99.9	101
Cc1ccc(S(=O)(=O)N2CCn3cccc3C2CC(=O)NC2CCCc3cc(CN4C5CCCC4CC5)ccc32)cc1 (centres unmarked) [Example 108, N-[6-(8-Azabicyclo[3.2.1]octan-8-yl-methyl)-1,2,3,4-tetrahydro-naphthalen-1-yl]-2-[2-(p-tolylsulfonyl)-1,2,3,4-tetrahydro-pyrrolo[1,2-a]pyrazin-1-yl]-acetamide]	99.9	101
Cc1ccc(S(=O)(=O)N2CCn3cccc3C2CC(=O)N[C@@H]2CCCc3cc(CNC(C)(C)C)ccc32)cc1 (stereo partly drawn) [Example 42, N-[(1R)-6-[(tert-Butylamino)-methyl]-1,2,3,4-tetrahydro-naphthalen-1-yl]-2-[2-(p-tolylsulfonyl)-1,2,3,4-tetrahydro-pyrrolo[1,2-a]pyrazin-1-yl]-acetamide]	99.9	107
Cc1ccc(S(=O)(=O)N2CCn3cccc3C2CC(=O)NC2CCc3cc(CN4CCOCC4)ccc3C2)cc1 (centres unmarked) [Example 87, N-[6-(Morpholin-4-yl-methyl)-1,2,3,4-tetrahydro-naphthalen-2-yl]-2-[2-(p-tolylsulfonyl)-1,2,3,4-tetrahydro-pyrrolo[1,2-a]pyrazin-1-yl]-acetamide]	99.4	102

Other lines, results leading:

inhibition at 10 µM (human B1R) [%]	inhibition at 10 µM (B1R of the rat) [%]	SMILES
98.5	101	Cc1ccc(S(=O)(=O)N2CCn3cccc3C2CC(=O)NC2CCCc3cc(CN4CCOCC4)ccc32)cc1Cl (centres unmarked) [Example 57, 2-[2-[(3-Chloro-4-methyl-phenyl)sulfonyl]-1,2,3,4-tetrahydro-pyrrolo[1,2-a]pyrazin-1-yl]-N-[6-(morpholin-4-yl-methyl)-1,2,3,4-tetrahydro-naphthalen-1-yl]-acetamide]
97.4	99.2	COc1cc(C)c(S(=O)(=O)N2CCn3cccc3C2CC(=O)NC2CCNCC2(C)C)c(C)c1 (centres unmarked) [Example 17, N-(3,3-Dimethylpiperidin-4-yl)-2-(2-(4-methoxy-2,6-dimethylphenylsulfonyl)-1,2,3,4-tetrahydropyrrolo[1,2-a]pyrazin-1-yl)acetamide]
99.9	99.7	COc1ccc2cc(S(=O)(=O)N3CCn4cccc4C3CC(=O)NC3CCCc4cc(CN5CCCC5)ccc43)ccc2c1 (centres unmarked) [Example 98, 2-[2-[(6-Methoxy-naphthalen-2-yl)sulfonyl]-1,2,3,4-tetrahydro-pyrrolo[1,2-a]pyrazin-1-yl]-N-[6-(pyrrolidin-1-yl-methyl)-1,2,3,4-tetrahydro-naphthalen-1-yl]-acetamide]
99.6	105	COc1cc(C)c(S(=O)(=O)N2CCn3cccc3C2COCC(=O)N(C)C2CCN(c3ccncc3)CC2)c(C)c1 (centres unmarked) [Example 39, 2-[[2-[(4-Methoxy-2,6-dimethyl-phenyl)sulfonyl]-1,2,3,4-tetrahydro-pyrrolo[1,2-a]pyrazin-1-yl]-methoxy]-N-methyl-N-(1-pyridin-4-yl-piperidin-4-yl)-acetamide]
100	113	O=C(COCC1c2cccn2CCN1S(=O)(=O)c1ccccc1C(F)(F)F)N1CCC2(CC1)CCN(c1ccncc1)C2 (centres unmarked) [Example 21, 1-(2-(Pyridin-4-yl)-2,8-diazaspiro[4.5]decan-8-yl)-2-((2-(2-(trifluoromethyl)phenylsulfonyl)-1,2,3,4-tetrahydropyrrolo[1,2-a]pyrazin-1-yl)methoxy)ethanone]
99.9	94.8	COc1cc(C)c(S(=O)(=O)N2CCn3cccc3C2CC(=O)N2CCC3(CC2)CCN(c2ccncc2)C3)c(C)c1 (centres unmarked) [Example 18, 2-(2-(4-Methoxy-2,6-dimethylphenylsulfonyl)-1,2,3,4-tetrahydro-pyrrolo[1,2-a]pyrazin-1-yl)-1-(2-(pyridin-4-yl)-2,8-diazaspiro[4.5]decan-8-yl)-ethanone]
